Measured values as given in patent US4202891A, “15-Oxygenated sterol compounds and the use of such compounds to inhibit the biosynthesis of sterols” (priority 1977, dated 1980).

Tests used:
serum cholesterol = test: Serum cholesterol concentration in rats, sterol in Cholesterol Free Test Diet (Examples 43, 46); format: in vivo, rat (male, Sprague-Dawley)
Source text: Male rats of the Sprague-Dawley strain were purchased from Sprague-Dawley Farms (Madison, Wisconsin). The rats were maintained on a light (7:00 A.M.-5:30 P.M.)--dark (5:30 P.M.-7:00 A.M.) cycle and fed a Cholesterol Free Test Diet (United States Biochemical Corporation, Cleveland, Ohio) for a period of 13 days prior to the initiation of the experimental period. Six days prior to the initiation of the experimental period blood samples were taken for assay of serum cholesterol concentration and, based upon the results of these analyses, rats were divided into 3 groups with approximately the same mean serum cholesterol concentration. The rats were then individually housed in metabolic cages (Econo-Metabolism Units, Maryland Plastics, New York, New York) for 6 days prior to the initiation of the experimental period. The animals were maintained on the light-dark cycle throughout the experimental period.
Blood samples were taken from the tail vein between 8:15 A.M. and 9:30 A.M. and at no time was more than ~0.5 ml of blood removed. Serum was obtained by centrifugation of the blood using Sure-Sep Junior (General Diagnostics, Division of Warner Lambert Company, Morris Plains, New Jersey) for 20 min at 2000-2500 rpm in a table top centrifuge (Dynac, Clay Adams Model 0091). Serum cholesterol concentration was assayed by a modification of the Cholesterol Auto Test (Bio-Dynamics, BMC Division) as described in Bio-Dynamics/bmc Cholesterol Instruction (revised December, 1975).
5α-Cholest-8(14)-en-3β-ol-15-one (500 mg), prepared and purified as described in Example 1, was added in small portions to 500 g of the Cholesterol Free Test Diet in a 2 liter glass stoppered bottle. After each addition of the sterol to the diet, the bottle was rolled and shaken thoroughly. The resulting 0.1% diet with respect to the 5α-cholest-8(14)-en-3β-ol-15-one was stored at 4° C. Prior to use in feeding, the diet was allowed to warm to room temperature (~25° C.).
2. Ketone group--7 rats with free access to the Cholesterol Free Test Diet containing 0.1% 5α-cholest-8(14)-en-3β-ol-15-one.
(§1) Another experiment following essentially the procedure of Example 43 was performed in which the 5α-cholest-8(14)-en-3β-ol-15-one was incorporated into the Cholesterol Free Test Diet at a concentration of 0.2%.

[1] = Adverse observations in rats on 0.2% ketone diet; format: in vivo, rat (male, Sprague-Dawley); conditions: 0.2% in diet
Experimental: as §1

[2] = tested on: sterol biosynthesis in L cells; test: Inhibition of sterol synthesis from [1-14C]acetate in L cell cultures; format: cell-based; conditions: Mus musculus; L cell cultures; read-out: Concentrations Required for 50% Inhibition of Sterol Synthesis
Procedure, shortened: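 Mouse L cells (NCTC clone 929 subline) in serum-free defined medium, preincubated 4 h with 15-oxygenated sterols, then given [1-14C]acetate at 4 μmoles per ml (4 μCi per ml). Sterol synthesis expressed as [14C]sterols/[14C]fatty acids ratio; 50% inhibitory concentration located over at least 4 compound concentrations.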

[3] = 0.1% in diet, day 4, listed as Ketone
[4] = 0.1% in diet, day 8, listed as Ketone

CC(C)CCC[C@@H](C)[C@H]1CC(=O)C2=C3CC[C@H]4C[C@@H](O)CC[C@]4(C)[C@H]3CC[C@@]21C [5α-Cholest-8(14)-en-3β-ol-15-one, 5α-cholest-8(14)-en-3β-ol-15-one]
effect on serum cholesterol concentrations (in words) (serum cholesterol; 0.1% in diet): marked effect in lowering the serum cholesterol concentrations
Serum cholesterol concentration (serum cholesterol; 0.1% in diet, day 0): 71.2 ± 0.9 mg per 100 ml
Serum cholesterol concentration (serum cholesterol; 0.1% in diet, day 4): 50.1 mg per 100 ml
Serum cholesterol concentration (serum cholesterol; [3]): 50.1 ± 2.3 mg per 100 ml
Serum cholesterol concentration, percentage of initial levels in individual rats (serum cholesterol; [3]): 70.5 ± 3.6%
Serum cholesterol concentration, percentage of initial levels in individual rats (serum cholesterol; 0.1% in diet, day 4, listed as ketone): 70.5%
Serum cholesterol concentration (serum cholesterol; 0.1% in diet, day 8): 36.9 mg per 100 ml
Serum cholesterol concentration (serum cholesterol; [4]): 36.9 ± 3.3 mg per 100 ml
Serum cholesterol concentration, percentage of initial levels in individual rats (serum cholesterol; [4]): 51.8 ± 4.4%
Serum cholesterol concentration, percentage of initial levels in individual rats (serum cholesterol; 0.1% in diet, day 8, listed as ketone): 51.8%
effect on serum cholesterol concentration (in words) (serum cholesterol; 0.2% in diet): marked effect on the serum cholesterol concentration
Serum cholesterol concentration (serum cholesterol; 0.2% in diet, day 0): 80.5 ± 2.8 mg per 100 ml
Serum cholesterol concentration (serum cholesterol; 0.2% in diet, day 4): 73.2 mg per 100 ml
Serum cholesterol levels, percentage of initial levels in individual rats (serum cholesterol; 0.2% in diet, day 4): 91.6 ± 4.3%
Serum cholesterol concentration (serum cholesterol; 0.2% in diet, day 4, listed as Ketone): 73.2 ± 3.0 mg per 100 ml
Serum cholesterol concentration (serum cholesterol; 0.2% in diet, day 7): 32.2 mg per 100 ml
Serum cholesterol levels, percentage of initial levels in individual rats (serum cholesterol; 0.2% in diet, day 7): 40.6 ± 7.9%
Serum cholesterol concentration (serum cholesterol; 0.2% in diet, day 7, listed as Ketone): 32.2 ± 5.9 mg per 100 ml
Serum cholesterol concentration (serum cholesterol; 0.2% in diet, day 9): 30.3 mg per 100 ml
Serum cholesterol levels, percentage of initial levels in individual rats (serum cholesterol; 0.2% in diet, day 9): 37.9 ± 8.8%
Serum cholesterol concentration (serum cholesterol; 0.2% in diet, day 9, listed as Ketone): 30.3 ± 6.2 mg per 100 ml
diarrhea ([1]; day 8): 4 of the rats in the ketone group were developing diarrhea
death ([1]; day 9): One of these rats died the following day
loose stools ([1]; day 9): Two other rats in this group showed loose stools on day 9
IC50 [2]: 100 nM
